# Patent US20230092001A1, “FURANEOL GLYCOSIDE COMPOUND, PHARMACEUTICAL COMPOSITION THEREOF, PREPARATION METHOD THEREFOR, AND APPLICATION THEREOF” (priority 2019, published 2023)
# What was measured:
# [1] = tested on: ulcerative colitis model (dextran sodium sulphate); test: Effect Example 3: therapeutic effect on ulcerative colitis, dextran sodium sulphate model, oral gavage, 7 days; type: in vivo, C57 mice; details: 40 mg/kg oral gavage
# Description: Fifty 10-week-old male C57 mice, SPF class animal house, temperature 20-26° C., humidity 40%-70%, alternating light-dark periods (12 h/12 h).
# (§1) Quarantine-qualified animals with similar weights were selected for the experiment.
# Mice in the blank control group were given normal drinking water throughout the experiment. The other 9 groups of mice were given drinking water containing 2% dextran sodium sulphate from day 1 to day 7. All groups were administered by oral gavage once a day according to table 10, until the end of the experiment.
# (§2) (1) The mice were weighed daily.
# (2) Blood samples were collected from the orbital vein on day 7 and stored at −80° C.
# (3) On day 7, the mice were sacrificed by cervical vertebra dislocation, the colon was removed and a small amount of fecal was taken from the colon and left as a sample. The colon length and colon weight were measured. A portion of the colon and the fecal sample was stored at −80° C.
# [2] = tested on: ulcerative colitis model (dextran sodium sulphate); test: Effect example 2: therapeutic effect on ulcerative colitis, dextran sodium sulphate model, oral gavage, 14 days; type: in vivo, C57 mice; details: treatment group 40 mg/kg oral gavage
# Description: Thirty-five 10-week-old male C57 mice, SPF class animal house, temperature 20-26° C., humidity 40%-70%, alternating light-dark periods (12 h/12 h).
# as §1
# Mice in the blank control group were given normal drinking water throughout the experiment. The other 6 groups of mice were given drinking water containing 2% dextran sodium sulphate from day 1 to day 5, normal drinking water from day 6 to day 7, drinking water containing 2% dextran sodium sulphate from day 8 to day 12, and normal drinking water from day 13 to day 14. The experiment ended on day 14. All groups were administered by oral gavage once a day according to table 7, until the end of the experiment on day 14.
# as §2
# (2) Blood samples were collected from the orbital vein on day 14 and stored at −80° C.
# (3) On day 14, the mice were sacrificed by cervical vertebra dislocation, the colon was removed and a small amount of fecal was taken from the colon and left as a sample. The colon length and colon weight were measured. A portion of the colon and the fecal sample was stored at −80° C.
compound,measurement,setting,value
"CC(=O)OC[C@H]1O[C@@H](OC2=C(C)OC(=C(C)C)C2=O)[C@H](OC(C)=O)[C@@H](OC(C)=O)[C@@H]1OC(C)=O [Compound I-2, 4-O-[(2,3,4,6-tetra-O-acetyl)-β-D-glucosyl]-5-methyl-2-(1-methylethylidene)-3(2H)-furanone]",Average weight of mice,[1]; Day 1,21.53 g
same,Average weight of mice,[1]; Day 2,21.42 g
same,Average weight of mice,[1]; Day 3,21.25 g
same,Average weight of mice,[1]; Day 4,20.97 g
same,Average weight of mice,[1]; Day 5,20.72 g
same,Average weight of mice,[1]; Day 6,20.27 g
same,Average weight of mice,[1]; Day 7,19.27 g
same,Average colon length of mice,[1]; day 7,5.8 cm
same,Average weight of mice,[2]; Day 1,26.86 g
same,Average weight of mice,[2]; Day 2,26.9 g
same,Average weight of mice,[2]; Day 3,26.82 g
same,Average weight of mice,[2]; Day 4,26.86 g
same,Average weight of mice,[2]; Day 5,26.58 g
same,Average weight of mice,[2]; Day 6,26.48 g
same,Average weight of mice,[2]; Day 7,25.18 g
same,Average weight of mice,[2]; Day 8,23.78 g
same,Average weight of mice,[2]; Day 9,23.64 g
same,Average weight of mice,[2]; Day 10,23.64 g
same,Average weight of mice,[2]; Day 11,24.72 g
same,Average weight of mice,[2]; Day 12,24.82 g
same,Average weight of mice,[2]; Day 13,24.8 g
same,Average weight of mice,[2]; Day 14,24.92 g
same,Average colon length of mice,[2]; day 14,6.2 cm
